Data on one compound can be found in US20090270612A1, “Therapeutic Agent for Osteoporosis Using a Retinoid X Receptor-Related Compound” (priority 2005, published 2009).

The subject of the experiment is OPG knockout mice. Kind of experiment: Bone morphometry of lumbar trabecular bone and femoral cortical bone in OPG knockout mice given drug in feed. It is filed as in vivo, mouse. Particulars: 0.03% drug in paste feed, 4 weeks. As to the method:
OPG knockout mice (6 week-old) were divided into 3 groups with 7 mice being prepared for each group. These mice were obtained from CLEA Japan, Inc. and categorized into three groups: control group (Cont), HX531 group (HX), and LE 135 group (LE). LE135 is a compound synthesized as a nuclear receptor […] (RAR) antagonist.
Paste feed is prepared by adding sterile water into and softening sterilized pellets in a dish. HX531 group and LE135 group were provided with the paste feed in which a corresponding drug was mixed. The amount of feed provided per day was fixed at 3 g per mouse in a solid state. The amount of drugs was calculated at 0.03% to the feed weight. Although the paste feed was exchanged everyday, almost no feed was left in all groups. A drug was administered successively for 4 weeks, and mice were double-labeled with tetracyclines and calceins by an abdominal administration 4 days and 2 days before they were sacrificed.
While bone morphometry of femur (cortical bone) and lumbar (trabecular bone) was conducted, a histological observation of femur was made. Furthermore, a blood sample was taken before the sacrifice to measure a bone formation marker.

For the compound `CN1c2ccc([N+](=O)[O-])cc2N=C(c2ccc(C(=O)O)cc2)c2cc3c(cc21)C(C)(C)CCC3(C)C` [HX531], the “bone mass in a lumbar trabecular bone by bone morphometry” value (FIG. 1) is listed as “large compared to the mice from the control group or mice provided with LE135”. For the same compound, the “trabecula number in a lumbar trabecular bone by bone morphometry” value (FIG. 2) is on record as “large compared to the mice from the control group or mice provided with LE135”. Further, the “bone resorption rate in a lumbar trabecular bone by bone morphometry” value (FIG. 7) is recorded as “significantly low”. The “osteoclast surface in a lumbar trabecular bone by bone morphometry” value (FIG. 8) was “small compared to the mice from the control group”. The “rarefaction surface/cortical bone in a femoral cortical bone by bone morphometry” value (FIG. 11) was “significantly low compared to the mice from the control group”. Also, the “porous surface in a femoral cortical bone by bone morphometry” value (FIG. 12) was “small”.
